Measured values published in patent publication US20050159478A1, “Compositions containing d-tocopherol compound polybasic acid partial esters” (priority 2003, published 2005).
Where “and” joins values, the source holds several entries; their conditions need not be identical. Equal entries are not always repeated.

Key:
[1] = Oscillatory rheology, softening point at tan(δ) = 1; format: physicochemical; conditions: for Rheology (oscillatory) @ Tan(δ) = 1 Temperature (softening point): heating rate 5° C./min, oscillation stress 1.0 Pa, 1.0 Hz
Experimental: Rheology measurements are conducted with TA Instruments Rheolyst AR-1000N rheometer. Experiments are conducted with the parallel plate geometry in a nitrogen atmosphere. The experiments use an oscillation stress of 1.0 Pa at a frequency of 1.0 Hz. The temperature range of the experiments is 40 to 210° C. at a heating rate of 5.0° C./min. Per analogy to rigid sphere or polymers, for TCS samples below the melting point, change in the pseudo G′ and G″ moduli″ is used as an indication of the softening of the sample. The cross-over point corresponds to the point where the ratio of the […] or tan (δ) is equal to one. The temperature at which tan (δ) is equal to one is considered as the softening point for the solid TCS samples. In addition, the second derivative of the loss modulus vs temperature was calculated. A maximum or minimum in the second derivative indicates a curvature or inflexion in the G″ vs T. This can also be taken as indicator of a change in the state of the samples (softening or melting depending on the temperature).
Softening points of these tocopherol succinate samples were identified using oscillatory rheology measurements. The temperature at which tan(δ) is equal to one, i.e., cross-over point (or the point where the samples are less rigid) is considered as their softening point. We call the moduli “pseudo loss and storage moduli”, since below the melting point, the powder cannot in reality be viscoelastic.

[2] = Differential Scanning Calorimetry of tocopherol calcium succinate samples; format: physicochemical; conditions: heating rate 5° C./min; several thermal transitions per sample
Experimental: DSC measurements are conducted with a Perkin Elmer Pyris 1 Differential Scanning Calorimeter. Experiments are conducted between 40° C. and 250° C. at heating/cooling rates of 5.0 and 10.0° C./min. During the experiments, the samples are enclosed in an air tight aluminum pan. The aluminum pan is in a nitrogen purge at 30 psi.

For `Cc1c(C)c2c(c(C)c1OC(=O)CCC(=O)[O-])CC[C@@](C)(CCC[C@H](C)CCC[C@H](C)CCCC(C)C)O2.Cc1c(C)c2c(c(C)c1OC(=O)CCC(=O)[O-])CC[C@@](C)(CCC[C@H](C)CCC[C@H](C)CCCC(C)C)O2.[Ca+2]` (racemic) [dl-tocopherol calcium succinate, reference compound], the “Rheology (oscillatory) @ Tan(δ) = 1 Temperature (softening point)” value [1] was 147 °C.
For `Cc1c(C)c2c(c(C)c1OC(=O)CCC(=O)[O-])CC[C@@](C)(CCC[C@H](C)CCC[C@H](C)CCCC(C)C)O2.Cc1c(C)c2c(c(C)c1OC(=O)CCC(=O)[O-])CC[C@@](C)(CCC[C@H](C)CCC[C@H](C)CCCC(C)C)O2.[Ca+2]` [d-α-tocopherol calcium succinate], the “softening point in comparison to synthetic dl-tocopherol calcium succinate” value ([1]; compared with dl-tocopherol calcium succinate) was “significantly improved, i.e., increased, softening point” and the “Rheology (oscillatory) @ Tan(δ) = 1 Temperature (softening point)” value [1] was 151 °C and 153 °C.
For `Cc1c(C)c2c(c(C)c1OC(=O)CCC(=O)O)CC[C@@](C)(CCC[C@H](C)CCC[C@H](C)CCCC(C)C)O2` [d-α-tocopherol succinic acid], the “DSC Enthalpy” value [2] was 80.00 J/g, the “DSC Onset” value [2] was 74.5 °C and the “Rheology (oscillatory) @ Tan(δ) = 1 Temperature (softening point)” value [1] was 74 °C.
